Source: PMC3314994, “Inhibitors of human histone deacetylase with potent activity against the African trypanosome Trypanosoma brucei” (Bioorganic & Medicinal Chemistry Letters, 2012)

Assays:
Trypanosoma brucei (BSF) [1] = assay: Growth inhibition of cultured bloodstream form T. brucei; format: cell-based, Trypanosoma brucei (strain 427)
Procedure: Treatment of parasites with micromolar levels of these inhibitors could result in cell death within 4 h (Fig. 1).
[30] Growth inhibitory properties against cultured bloodstream form T. brucei were determined as described previously.[29] Experiments were performed in triplicate and data are presented as ±SD.

rhHDAC 1 = rhHDAC 1 (Homo sapiens, UniProt Q13547); assay: Inhibition of recombinant human HDAC isoforms; format: biochemical; conditions: mean ± SD, triplicate per plate, min two plates; read-out: ED50 rhHDAC 1
From the text: (§1) The compounds from the different structural subclasses were all active as HDAC inhibitors, measured in an assay of enzymes in HeLa cell lysates.[23,24] HeLa cells express multiple HDACs, including HDAC 1, 2, 3, 4, and 8.[25–27] […] To further characterise the compounds with respect to HDAC selectivity, we determined their inhibitory properties against recombinant expressed human HDACs (rhHDAC 1–4, 6–9).[28]

rhHDAC 4 = rhHDAC 4 (Homo sapiens, UniProt P56524); assay: Inhibition of recombinant human HDAC isoforms; format: biochemical; conditions: mean ± SD, triplicate per plate, min two plates; read-out: ED50 rhHDAC 4
From the text: as §1

rhHDAC 9 = rhHDAC 9 (Homo sapiens, UniProt Q9UKV0); assay: Inhibition of recombinant human HDAC isoforms; format: biochemical; conditions: mean ± SD, triplicate per plate, min two plates; read-out: ED50 rhHDAC 9
From the text: as §1

rhHDAC 6 = target: T1, rhHDAC 6 (Homo sapiens, UniProt Q9UBN7); assay: Inhibition of recombinant human HDAC isoforms; format: biochemical; conditions: mean ± SD, triplicate per plate, min two plates; read-out: ED50 rhHDAC 6
T1 sequence (Q9UBN7 1-1215): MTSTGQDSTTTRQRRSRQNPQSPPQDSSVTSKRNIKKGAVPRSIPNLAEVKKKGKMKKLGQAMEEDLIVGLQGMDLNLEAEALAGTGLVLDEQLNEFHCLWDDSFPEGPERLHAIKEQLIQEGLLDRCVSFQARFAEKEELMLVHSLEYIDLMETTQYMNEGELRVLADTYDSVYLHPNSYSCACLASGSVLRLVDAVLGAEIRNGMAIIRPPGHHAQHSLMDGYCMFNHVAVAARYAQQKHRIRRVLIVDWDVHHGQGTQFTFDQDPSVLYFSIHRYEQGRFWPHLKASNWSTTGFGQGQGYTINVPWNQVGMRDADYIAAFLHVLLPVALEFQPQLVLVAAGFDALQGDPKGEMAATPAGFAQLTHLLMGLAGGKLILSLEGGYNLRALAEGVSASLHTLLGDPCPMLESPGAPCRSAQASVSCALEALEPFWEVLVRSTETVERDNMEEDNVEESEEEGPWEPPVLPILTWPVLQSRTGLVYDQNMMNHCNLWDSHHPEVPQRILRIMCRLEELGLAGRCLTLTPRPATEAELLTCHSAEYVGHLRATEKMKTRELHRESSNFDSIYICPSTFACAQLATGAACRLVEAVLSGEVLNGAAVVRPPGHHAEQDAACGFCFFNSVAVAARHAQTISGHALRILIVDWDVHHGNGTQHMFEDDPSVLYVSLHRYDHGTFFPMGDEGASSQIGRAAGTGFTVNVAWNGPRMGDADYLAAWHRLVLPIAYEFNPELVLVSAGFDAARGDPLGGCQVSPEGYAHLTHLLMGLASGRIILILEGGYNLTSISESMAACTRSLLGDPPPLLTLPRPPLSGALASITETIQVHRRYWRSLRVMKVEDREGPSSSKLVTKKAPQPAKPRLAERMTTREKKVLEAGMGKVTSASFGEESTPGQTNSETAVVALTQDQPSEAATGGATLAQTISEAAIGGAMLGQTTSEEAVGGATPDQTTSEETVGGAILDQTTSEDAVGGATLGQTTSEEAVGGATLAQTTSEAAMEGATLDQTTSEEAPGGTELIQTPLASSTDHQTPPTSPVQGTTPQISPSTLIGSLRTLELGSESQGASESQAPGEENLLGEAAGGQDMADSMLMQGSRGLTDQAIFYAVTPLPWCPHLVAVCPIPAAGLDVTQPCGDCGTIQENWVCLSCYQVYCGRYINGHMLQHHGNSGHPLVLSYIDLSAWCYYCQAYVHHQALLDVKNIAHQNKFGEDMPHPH
From the text: as §1

rhHDAC 8 = target: T2, rhHDAC 8 (Homo sapiens, UniProt Q9BY41); assay: Inhibition of recombinant human HDAC isoforms; format: biochemical; conditions: mean ± SD, triplicate per plate, min two plates; read-out: ED50 rhHDAC 8
T2 sequence (Q9BY41 1-377): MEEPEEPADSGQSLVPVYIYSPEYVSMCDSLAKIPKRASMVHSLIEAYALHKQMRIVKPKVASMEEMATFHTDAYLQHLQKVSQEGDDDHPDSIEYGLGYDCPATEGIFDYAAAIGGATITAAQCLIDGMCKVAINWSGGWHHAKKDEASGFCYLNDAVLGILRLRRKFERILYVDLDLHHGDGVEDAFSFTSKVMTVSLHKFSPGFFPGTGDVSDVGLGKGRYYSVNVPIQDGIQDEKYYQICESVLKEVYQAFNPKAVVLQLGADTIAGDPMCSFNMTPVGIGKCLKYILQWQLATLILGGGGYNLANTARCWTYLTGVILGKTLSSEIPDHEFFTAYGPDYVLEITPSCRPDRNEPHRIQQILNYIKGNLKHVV
From the text: as §1

rhHDAC 7 = target: T3, rhHDAC 7 (Homo sapiens, UniProt Q8WUI4); assay: Inhibition of recombinant human HDAC isoforms; format: biochemical; conditions: mean ± SD, triplicate per plate, min two plates; read-out: ED50 rhHDAC 7
T3 sequence (Q8WUI4 1-952): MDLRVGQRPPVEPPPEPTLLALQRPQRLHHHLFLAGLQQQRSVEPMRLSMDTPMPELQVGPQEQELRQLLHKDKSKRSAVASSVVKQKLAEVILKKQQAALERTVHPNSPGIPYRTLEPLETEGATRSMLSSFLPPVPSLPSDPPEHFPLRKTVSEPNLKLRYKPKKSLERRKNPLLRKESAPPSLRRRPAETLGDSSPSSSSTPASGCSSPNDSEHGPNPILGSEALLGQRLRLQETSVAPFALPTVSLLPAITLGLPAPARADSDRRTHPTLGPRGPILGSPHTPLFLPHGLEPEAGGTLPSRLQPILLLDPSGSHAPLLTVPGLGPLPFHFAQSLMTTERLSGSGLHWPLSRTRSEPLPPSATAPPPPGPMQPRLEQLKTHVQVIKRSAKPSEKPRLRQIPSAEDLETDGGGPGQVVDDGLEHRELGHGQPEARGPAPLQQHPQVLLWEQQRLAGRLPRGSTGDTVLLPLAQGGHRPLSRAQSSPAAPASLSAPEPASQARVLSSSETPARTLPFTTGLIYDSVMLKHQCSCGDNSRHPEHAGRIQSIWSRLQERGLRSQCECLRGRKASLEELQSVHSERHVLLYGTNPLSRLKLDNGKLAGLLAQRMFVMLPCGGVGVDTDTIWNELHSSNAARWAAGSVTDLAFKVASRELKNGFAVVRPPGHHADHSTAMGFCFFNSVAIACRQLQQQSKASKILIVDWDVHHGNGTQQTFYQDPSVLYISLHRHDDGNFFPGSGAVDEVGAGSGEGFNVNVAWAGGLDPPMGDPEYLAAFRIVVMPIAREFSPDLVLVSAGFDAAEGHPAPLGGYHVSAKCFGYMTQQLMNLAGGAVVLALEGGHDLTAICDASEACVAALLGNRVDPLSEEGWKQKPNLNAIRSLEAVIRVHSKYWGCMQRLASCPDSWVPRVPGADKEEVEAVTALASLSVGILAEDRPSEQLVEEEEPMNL
From the text: as §1

rhHDAC 3 = rhHDAC 3 (Homo sapiens, UniProt O15379); assay: Inhibition of recombinant human HDAC isoforms; format: biochemical; conditions: mean ± SD, triplicate per plate, min two plates; read-out: ED50 rhHDAC 3
From the text: as §1

rhHDAC 2 = rhHDAC 2 (Homo sapiens, UniProt Q92769); assay: Inhibition of recombinant human HDAC isoforms; format: biochemical; conditions: mean ± SD, triplicate per plate, min two plates; read-out: ED50 rhHDAC 2
From the text: as §1

HDAC (FDL_HELA) = assay: Histone deacetylase activity in HeLa cell lysates (fluorescent assay kit); format: biochemical, Human; conditions: lysed HeLa cells; read-out: HDAC (FDL_HELA) IC50 ± SD
Procedure: as §1
[24] Histone deacetylase activity was determined in lysed Human cervix epithelial cancer HeLa cells. To determine the IC50 of test compound a commercially available fluorescent assay kit was used employing an acetylated enzyme substrate.[23]

DAC1 = test system: DAC1; parameters: method as in PMID 20624217; conditions: cited from earlier work
Trypanosoma brucei (BSF) [2] = test system: Trypanosoma brucei (BSF); parameters: method as in PMID 14726511; conditions: cited from earlier work
DAC3 = test system: DAC3; parameters: method as in PMID 20624217; conditions: cited from earlier work

rhHDAC 9, sequence (Q9UKV0 whole entry, canonical isoform): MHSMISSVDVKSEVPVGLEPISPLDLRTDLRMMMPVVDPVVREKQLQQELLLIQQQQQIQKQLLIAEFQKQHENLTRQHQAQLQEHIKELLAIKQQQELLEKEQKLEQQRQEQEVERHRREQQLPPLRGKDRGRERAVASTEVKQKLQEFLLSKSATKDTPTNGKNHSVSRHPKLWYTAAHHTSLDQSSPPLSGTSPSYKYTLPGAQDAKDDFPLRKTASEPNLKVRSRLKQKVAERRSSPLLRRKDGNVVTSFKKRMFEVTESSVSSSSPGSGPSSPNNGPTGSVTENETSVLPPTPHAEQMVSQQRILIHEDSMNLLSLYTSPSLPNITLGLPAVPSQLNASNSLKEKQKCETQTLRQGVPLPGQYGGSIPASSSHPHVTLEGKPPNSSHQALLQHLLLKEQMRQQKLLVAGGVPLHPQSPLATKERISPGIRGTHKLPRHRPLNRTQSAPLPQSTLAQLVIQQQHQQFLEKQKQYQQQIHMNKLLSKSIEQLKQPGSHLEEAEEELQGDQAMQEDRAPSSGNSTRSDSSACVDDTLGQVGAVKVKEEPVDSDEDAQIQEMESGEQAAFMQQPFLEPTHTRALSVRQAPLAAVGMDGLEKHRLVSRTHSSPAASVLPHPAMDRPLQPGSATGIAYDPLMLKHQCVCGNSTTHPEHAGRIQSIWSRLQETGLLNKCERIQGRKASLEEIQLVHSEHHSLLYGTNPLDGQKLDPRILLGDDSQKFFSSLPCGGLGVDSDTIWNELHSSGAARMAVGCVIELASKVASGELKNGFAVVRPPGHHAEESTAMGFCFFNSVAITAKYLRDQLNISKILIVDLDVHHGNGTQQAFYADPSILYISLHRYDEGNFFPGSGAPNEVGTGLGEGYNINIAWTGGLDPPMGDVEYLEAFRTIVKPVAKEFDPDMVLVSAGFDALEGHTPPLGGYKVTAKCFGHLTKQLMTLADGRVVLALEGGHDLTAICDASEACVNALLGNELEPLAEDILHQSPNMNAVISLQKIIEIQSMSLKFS
rhHDAC 4, sequence (P56524 whole entry, canonical isoform): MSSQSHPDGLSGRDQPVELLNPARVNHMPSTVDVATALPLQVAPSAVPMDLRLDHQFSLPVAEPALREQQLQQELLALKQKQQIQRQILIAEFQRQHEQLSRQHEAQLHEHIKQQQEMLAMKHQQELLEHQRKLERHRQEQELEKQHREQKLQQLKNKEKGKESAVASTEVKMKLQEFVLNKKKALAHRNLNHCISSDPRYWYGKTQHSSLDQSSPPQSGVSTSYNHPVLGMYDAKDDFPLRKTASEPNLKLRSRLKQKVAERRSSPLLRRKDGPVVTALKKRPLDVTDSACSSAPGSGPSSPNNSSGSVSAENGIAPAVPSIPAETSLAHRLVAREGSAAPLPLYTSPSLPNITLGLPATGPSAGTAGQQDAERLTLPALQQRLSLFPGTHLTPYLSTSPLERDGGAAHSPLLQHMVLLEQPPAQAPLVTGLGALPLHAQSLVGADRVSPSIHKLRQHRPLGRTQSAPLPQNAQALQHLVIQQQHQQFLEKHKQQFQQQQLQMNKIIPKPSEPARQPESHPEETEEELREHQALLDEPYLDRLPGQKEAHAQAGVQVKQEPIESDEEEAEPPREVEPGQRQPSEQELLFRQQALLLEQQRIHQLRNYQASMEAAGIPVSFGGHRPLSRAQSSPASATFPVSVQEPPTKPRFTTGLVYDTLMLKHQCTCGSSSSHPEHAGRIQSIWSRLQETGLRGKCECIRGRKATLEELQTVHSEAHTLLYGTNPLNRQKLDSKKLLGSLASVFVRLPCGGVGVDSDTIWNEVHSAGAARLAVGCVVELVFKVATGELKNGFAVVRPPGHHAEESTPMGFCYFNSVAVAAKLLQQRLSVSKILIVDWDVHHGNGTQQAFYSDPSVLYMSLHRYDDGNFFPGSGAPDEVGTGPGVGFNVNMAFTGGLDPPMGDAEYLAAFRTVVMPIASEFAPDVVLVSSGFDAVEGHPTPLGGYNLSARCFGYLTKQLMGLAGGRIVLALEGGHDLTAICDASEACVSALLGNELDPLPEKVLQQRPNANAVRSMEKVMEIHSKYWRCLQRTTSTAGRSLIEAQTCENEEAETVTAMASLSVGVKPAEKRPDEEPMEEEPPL
rhHDAC 3, sequence (O15379 whole entry, canonical isoform): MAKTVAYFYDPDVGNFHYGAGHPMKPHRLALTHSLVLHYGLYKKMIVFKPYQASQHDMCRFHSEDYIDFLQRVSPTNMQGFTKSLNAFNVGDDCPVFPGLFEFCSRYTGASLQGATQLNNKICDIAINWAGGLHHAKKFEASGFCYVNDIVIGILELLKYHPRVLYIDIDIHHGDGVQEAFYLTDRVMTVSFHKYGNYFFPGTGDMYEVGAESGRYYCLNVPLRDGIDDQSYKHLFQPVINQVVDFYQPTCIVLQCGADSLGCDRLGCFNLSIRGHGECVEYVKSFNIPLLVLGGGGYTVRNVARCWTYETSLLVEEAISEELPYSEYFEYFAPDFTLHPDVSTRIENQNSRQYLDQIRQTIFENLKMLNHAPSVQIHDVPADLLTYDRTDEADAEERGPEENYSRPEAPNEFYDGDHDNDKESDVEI
rhHDAC 3, sequence (Q9Y618 395-489 partner limits assumed): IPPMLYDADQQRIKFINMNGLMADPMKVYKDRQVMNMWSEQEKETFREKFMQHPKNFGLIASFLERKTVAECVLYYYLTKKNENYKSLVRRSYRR
rhHDAC 2, sequence (Q92769 whole entry, canonical isoform): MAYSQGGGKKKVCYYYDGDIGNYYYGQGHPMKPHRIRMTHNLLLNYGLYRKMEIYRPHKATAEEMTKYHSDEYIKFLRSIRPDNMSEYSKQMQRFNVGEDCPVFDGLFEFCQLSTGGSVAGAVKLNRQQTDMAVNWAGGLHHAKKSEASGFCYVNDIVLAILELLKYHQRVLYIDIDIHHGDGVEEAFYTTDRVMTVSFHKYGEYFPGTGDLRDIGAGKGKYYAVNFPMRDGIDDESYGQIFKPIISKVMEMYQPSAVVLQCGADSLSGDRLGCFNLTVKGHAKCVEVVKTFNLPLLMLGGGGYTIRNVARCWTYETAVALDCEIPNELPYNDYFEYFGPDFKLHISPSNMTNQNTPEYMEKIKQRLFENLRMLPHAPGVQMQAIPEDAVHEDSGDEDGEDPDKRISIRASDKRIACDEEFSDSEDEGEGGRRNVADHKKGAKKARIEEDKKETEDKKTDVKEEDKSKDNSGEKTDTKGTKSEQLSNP
rhHDAC 1, sequence (Q13547 whole entry, canonical isoform): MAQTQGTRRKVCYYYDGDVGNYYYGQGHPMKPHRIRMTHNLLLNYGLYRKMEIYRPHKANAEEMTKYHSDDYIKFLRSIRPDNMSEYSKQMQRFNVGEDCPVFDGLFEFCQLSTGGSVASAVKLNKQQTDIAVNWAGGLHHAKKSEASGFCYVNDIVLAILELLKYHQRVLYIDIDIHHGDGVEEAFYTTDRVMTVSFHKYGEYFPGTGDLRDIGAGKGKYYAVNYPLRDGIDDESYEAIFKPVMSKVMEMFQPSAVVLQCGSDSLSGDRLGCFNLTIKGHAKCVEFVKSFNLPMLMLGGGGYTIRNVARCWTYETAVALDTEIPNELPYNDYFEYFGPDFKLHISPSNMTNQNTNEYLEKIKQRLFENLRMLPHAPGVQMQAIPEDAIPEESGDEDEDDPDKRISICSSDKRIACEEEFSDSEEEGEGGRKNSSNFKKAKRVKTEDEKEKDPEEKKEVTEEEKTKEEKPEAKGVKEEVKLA

SMILES	IC50 (Trypanosoma brucei (BSF) [1]; Trypanosoma brucei, cultured bloodstream form, strain 427, triplicate, read-out: Trypanosoma brucei (BSF) IC50 ± SD) [nM]	IC90 (Trypanosoma brucei (BSF) [1]; Trypanosoma brucei, cultured bloodstream form, strain 427, triplicate, read-out: Trypanosoma brucei (BSF) IC90 ± SD) [nM]	fold less active against T. brucei (Trypanosoma brucei (BSF) [1]; relative to heterocyclic compounds 9 and 16)	IC50 (rhHDAC 1) [nM]	IC50 (rhHDAC 4) [nM]	IC50 (rhHDAC 9) [nM]	IC50 (rhHDAC 6) [nM]	IC50 (rhHDAC 8) [nM]	IC50 (rhHDAC 7) [nM]	IC50 (rhHDAC 3) [nM]	IC50 (rhHDAC 2) [nM]	IC50 (HDAC (FDL_HELA)) [nM]	inhibition of DAC1 activity (DAC1)	growth of bloodstream form T. brucei (Trypanosoma brucei (BSF) [2])	inhibition of DAC3 activity (DAC3)
O=C(/C=C/c1nc2ccccc2o1)NO [Compound 20]	1540 ± 60	2180 ± 180	5- to 10 fold	134 ± 6	373 ± 73	278 ± 65	68 ± 13	573 ± 30	286 ± 8	97 ± 0.6	554 ± 44	48 ± 28	–	–	–
CC(/C=C/C(=O)NO)=C\[C@@H](C)C(=O)c1ccc(N(C)C)cc1 [Trichostatin A]	–	–	–	–	–	–	–	–	–	–	–	–	inhibitor	suppresses growth	inhibitor
